Conditions: 101.33 kPa, Crystal 2, Small (less than 1 g) adiabatic calorimetry

O=S(=O)([O-])[O-].[Sr+2] [sulfuric acid, strontium salt (1:1)]
Conditions | molar entropy [J/K/mol]
5 K | 0.01272
10 K | 0.1188
15 K | 0.4903
20 K | 1.25
25 K | 2.413
30 K | 3.947
35 K | 5.8
40 K | 7.917
45 K | 10.25
50 K | 12.75
55 K | 15.38
60 K | 18.11
65 K | 20.88
70 K | 23.69
75 K | 26.51
80 K | 29.33
85 K | 32.13
90 K | 34.9
95 K | 37.65
100 K | 40.36
110 K | 45.67
120 K | 50.82
130 K | 55.82
140 K | 60.67
150 K | 65.39
160 K | 69.99
170 K | 74.46
180 K | 78.81
190 K | 83.06
200 K | 87.2
210 K | 91.24
220 K | 95.18
230 K | 99.04
240 K | 102.82
250 K | 106.52
260 K | 110.15
270 K | 113.73
273.15 K | 114.84
280 K | 117.23
290 K | 120.68
298.15 K | 123.44
300 K | 124.06
310 K | 127.38
320 K | 130.64

From the NIST ThermoML archive (doi:10.1016/j.tca.2013.05.017)
